Measurements reported in article PMC12867150, “A fungi-derived cyclic peptide enhances Th9-mediated antitumor immunity by targeting ZAP70 and SREBP1” (The Journal of Clinical Investigation, 2025).

What was measured:
phosphorylated ZAP70 = assay: Flow cytometry of phosphorylated ZAP70 in human Th9 cells (Figure 8F); type: cell-based; conditions: result in words
Protocol: For Th9 polarization, cultures were supplemented with IL-4 (10 ng/mL, PeproTech, catalog AF-200-04), TGF-β (1 ng/mL), and neutralizing anti–IFN-γ monoclonal antibody (10 μg/mL, clone B27, BioXcell, catalog BE0245). After 3 days of initial culture, cells were either collected for downstream assays or continued in extended culture with refreshed cytokines to maintain lineage commitment without antibodies. Th9 cells were collected at days 4, 5, and 6 for subsequent in vitro assays. For adoptive transfer studies, day 4–cultured Th9 cells were washed and prepared for intravenous injection.
Details regarding staining panels (human and mouse), reagents (including clones and catalog numbers), acquisition settings, compensation/controls, and analysis procedures are provided in Supplemental Methods.
MH9A4, Biolegend, Cat. No. 507605, PE/Cy7, clone MH9A4, Biolegend, Cat. No. […]
clone Mab11, Biolegend, Cat. No. 502908), Perforin (APC, clone dG9, Biolegend, Cat.
Flow cytometric acquisition was performed using a BD Fortessa or Cytek Aurora cytometer. Data were analyzed with FlowJo software (v10.8.1 or newer). Fluorescence compensation, isotype-matched controls, and fluorescence-minus-one (FMO) controls were applied as appropriate for multicolor panel validation.
Cells were washed twice with PBS and lysed in 1 × lysis buffer (NCM, Cat. No. […]

Th9 cells = assay: Screening of 65 natural compounds for IL-9 production by Th9 cells (Figure 1B); type: cell-based, mouse; conditions: 10 μM; result in words
Excerpt: To identify natural small molecules that enhance the antitumor potential of Th9 cells, we constructed a chemically and structurally defined small-molecule library derived from endophytic fungi isolated from G. lucidum and Periplaneta americana (Supplemental Table 1; supplemental material available online with this article; https://doi.org/10.1172/JCI196907DS1). This library comprised 65 structurally diverse metabolites classified into 11 distinct scaffold families, with each compound structurally elucidated via NMR spectroscopy and verified against previously reported spectral data. To functionally evaluate the immunomodulatory potential of these compounds, we systematically screened the library for their ability to promote Th9 cell differentiation, assessed by intracellular IL-9 expression using flow cytometry (Figure 1, A and B).
Naive CD4^+ T cells were isolated from the spleens of C57BL/6J or CD45.1^+ OT-II mice using the MojoSort Mouse CD4 Naive T Cell Isolation Kit (BioLegend, catalog 480040), following the manufacturer’s protocol. Purified cells were cultured in RPMI-1640 medium supplemented with 10% FBS, 1% penicillin-streptomycin, and 0.1% β-mercaptoethanol (Gibco, catalog 21985023). […]

Substance: anteiso-C15 Leu7 surfactin [EpA]
- ZAP70 phosphorylation, human Th9 (phosphorylated ZAP70): increased phosphorylation of ZAP70
- Th9 polarization in screen (Th9 cells): most potent enhancer of Th9 polarization
